Experimental data: patent US20260285850A1, “SUBSTITUTED OXAZOLIDINONES AND IMIDAZOLINONES AS HERBICIDES” (FMC CORPORATION, priority 2023, published 2026)

Assays:
Type in all cases: in vivo
kochia (Bassia scoparia) [1] = assay: Test A preemergence soil spray, visual injury rating 0-100; details: 10 days, 0 = no effect, 100 = complete control
How it was run: (§1)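 Rating: visual, day 10, untreated plants as reference, 0 no effect to 100 full control. Plants were in loam-sand and were treated either preemergence via directed soil spray or postemergence at the one- to two-leaf stage.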

corn (Zea mays) [2] = assay: as above; details: 10 days, 0 = no effect, 100 = complete control
How it was run: as §1

[3] = test system: wheat (Triticum aestivum); assay: as above; details: 10 days, 0 = no effect, 100 = complete control
How it was run: as §1

[4] = test system: barnyardgrass (Echinochloa crus-galli); assay: as above; details: 10 days, 0 = no effect, 100 = complete control
How it was run: as §1

[5] = test system: oat, wild (wild oat, Avena fatua); assay: as above; details: 10 days, 0 = no effect, 100 = complete control
How it was run: as §1

[6] = test system: blackgrass (Alopecurus myosuroides); assay: as above; details: 10 days, 0 = no effect, 100 = complete control
How it was run: as §1

[7] = test system: palmer (palmer amaranth, palmer pigweed, Amaranthus palmeri); assay: as above; details: 10 days, 0 = no effect, 100 = complete control
How it was run: as §1

[8] = test system: ryegrass, Italian (italian ryegrass, Lolium multiflorum); assay: as above; details: 10 days, 0 = no effect, 100 = complete control
How it was run: as §1

[9] = test system: ragweed (common ragweed, Ambrosia artemisiifolia); assay: as above; details: 10 days, 0 = no effect, 100 = complete control
How it was run: as §1

soybean (Glycine max) [10] = assay: as above; details: 10 days, 0 = no effect, 100 = complete control
How it was run: as §1

kochia (Bassia scoparia) [11] = assay: Test A postemergence application, visual injury rating 0-100; details: 10 days
How it was run: as §1

corn (Zea mays) [12] = assay: as above; details: 10 days
How it was run: as §1

[13] = test system: wheat (Triticum aestivum); assay: as above; details: 10 days
How it was run: as §1

[14] = test system: barnyardgrass (Echinochloa crus-galli); assay: as above; details: 10 days
How it was run: as §1

[15] = test system: oat, wild (wild oat, Avena fatua); assay: as above; details: 10 days
How it was run: as §1

[16] = test system: blackgrass (Alopecurus myosuroides); assay: as above; details: 10 days
How it was run: as §1

[17] = test system: galium (catchweed bedstraw, Galium aparine); assay: as above; details: 10 days
How it was run: as §1

[18] = test system: palmer (palmer amaranth, palmer pigweed, Amaranthus palmeri); assay: as above; details: 10 days
How it was run: as §1

[19] = test system: ryegrass, Italian (italian ryegrass, Lolium multiflorum); assay: as above; details: 10 days
How it was run: as §1

[20] = test system: ragweed (common ragweed, Ambrosia artemisiifolia); assay: as above; details: 10 days
How it was run: as §1

soybean (Glycine max) [21] = assay: as above; details: 10 days
How it was run: as §1

[22] = test system: horseweed (Erigeron canadensis); assay: as above; details: 10 days
How it was run: as §1

[23] = test system: ducksalad (Heteranthera limosa); assay: Test B flooded paddy test, visual plant response rating 0-100; details: 250 g ai/ha, Flood, applied to paddy water, evaluated after 13 days
How it was run: (§2)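 Compounds applied to standing paddy water (3 cm above soil, maintained for the test duration) on 2-leaf-stage plants; visual rating vs controls at 13 days, greenhouse.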

rice (Oryza sativa) = assay: as above; details: 250 g ai/ha, Flood, applied to paddy water, evaluated after 13 days
How it was run: as §2

[24] = test system: barnyardgrass (Echinochloa crusgalli); assay: as above; details: 250 g ai/ha, Flood, applied to paddy water, evaluated after 13 days
How it was run: as §2

[25] = test system: sedge, umbrella (small-flower umbrella sedge, Cyperus difformis); assay: as above; details: 250 g ai/ha, Flood, applied to paddy water, evaluated after 13 days
How it was run: as §2

[26] = 31 g ai/ha, postemergence, 0 = no effect, 100 = complete control
[27] = Postemergence, 125 g ai/ha, 0 is no effect, 100 is complete control

CC1(C(=O)NC2C=CC(C(=O)OC3CCCC3)C2)CN(c2cc(Cl)cc(Cl)c2)C(=O)O1 (stereo not drawn) [Compound 59]
Kochia plant response rating (0-100) (kochia (Bassia scoparia) [1]; 31 g ai/ha): 40 | Kochia plant response rating (0 to 100 scale) (kochia (Bassia scoparia) [1]; 125 g ai/ha): 80 | Corn plant response rating (0-100) (corn (Zea mays) [2]; 31 g ai/ha): 0 | Corn plant response rating (0 to 100 scale) (corn (Zea mays) [2]; 125 g ai/ha): 50 | Wheat plant response rating (0-100) ([3]; 31 g ai/ha): 30 | Wheat plant response rating (0 to 100 scale) ([3]; 125 g ai/ha): 70 | Barnyardgrass plant response rating (0-100) ([4]; 31 g ai/ha): 60 | Barnyardgrass plant response rating (0 to 100 scale) ([4]; 125 g ai/ha): 100 | Oat, Wild plant response rating (0-100) ([5]; 31 g ai/ha): 10 | Oat, Wild plant response rating (0 to 100 scale) ([5]; 125 g ai/ha): 80 | Blackgrass plant response rating (0-100) ([6]; 31 g ai/ha): 0 | Blackgrass plant response rating (0 to 100 scale) ([6]; 125 g ai/ha): 60 | Amaranth, Palmer plant response rating (0-100) ([7]; 31 g ai/ha): 100 | Amaranth, Palmer plant response rating (0 to 100 scale) ([7]; 125 g ai/ha): 100 | Ryegrass, Italian plant response rating (0-100) ([8]; 31 g ai/ha): 60 | Ryegrass, Italian plant response rating (0 to 100 scale) ([8]; 125 g ai/ha): 80 | Ragweed plant response rating (0-100) ([9]; 31 g ai/ha): 30 | Ragweed plant response rating (0 to 100 scale) ([9]; 125 g ai/ha): 60 | Soybean plant response rating (0-100) (soybean (Glycine max) [10]; 31 g ai/ha): 30 | Soybean plant response rating (0 to 100 scale) (soybean (Glycine max) [10]; 125 g ai/ha): 60 | Kochia plant response rating (0-100) (kochia (Bassia scoparia) [11]; [26]): 80 | Kochia plant response rating (0 to 100 scale) (kochia (Bassia scoparia) [11]; [27]): 90 | Corn plant response rating (0-100) (corn (Zea mays) [12]; [26]): 90 | Corn plant response rating (0 to 100 scale) (corn (Zea mays) [12]; [27]): 100 | Wheat plant response rating (0-100) [13, 26]: 90 | Wheat plant response rating (0 to 100 scale) [13, 27]: 90 | Barnyardgrass plant response rating (0-100) [14, 26]: 90 | Barnyardgrass plant response rating (0 to 100 scale) [14, 27]: 90 | Oat, Wild plant response rating (0-100) [15, 26]: 60 | Oat, Wild plant response rating (0 to 100 scale) [15, 27]: 90 | Blackgrass plant response rating (0-100) [16, 26]: 100 | Blackgrass plant response rating (0 to 100 scale) [16, 27]: 100 | Galium plant response rating (0-100) [17, 26]: 90 | Galium plant response rating (0 to 100 scale) [17, 27]: 90 | Amaranth, Palmer plant response rating (0-100) [18, 26]: 90 | Amaranth, Palmer / Pigweed, Palmer plant response rating (0 to 100 scale) [18, 27]: 100 | Ryegrass, Italian plant response rating (0-100) [19, 26]: 90 | Ryegrass, Italian plant response rating (0 to 100 scale) [19, 27]: 90 | Ragweed plant response rating (0-100) [20, 26]: 30 | Ragweed plant response rating (0 to 100 scale) [20, 27]: 80 | Soybean plant response rating (0-100) (soybean (Glycine max) [21]; [26]): 90 | Soybean plant response rating (0 to 100 scale) (soybean (Glycine max) [21]; [27]): 100 | Horseweed plant response rating (0-100) [22, 26]: 20 | Horseweed plant response rating (0 to 100 scale) [22, 27]: 70 | Plant response rating, Ducksalad (0 to 100 scale, 0 is no effect and 100 is complete control) [23]: 85 | Plant response rating, Rice (0 to 100 scale, 0 is no effect and 100 is complete control) (rice (Oryza sativa)): 50 | Plant response rating, Barnyardgrass (0 to 100 scale, 0 is no effect and 100 is complete control) [24]: 90 | Plant response rating, Sedge, Umbrella (0 to 100 scale, 0 is no effect and 100 is complete control) [25]: 98
